Data from PubChem BioAssay AID330 (DTP/NCI, 2004).
Inconclusive results and toxic doses are left out. How the source made its calls: active means survival T/C of 150% or more; inactive means T/C below 125% in these data.

System: P388 leukemia ip, CD2F1 mice, survival T/C
Assay: NCI In Vivo Anticancer Drug Screen. Data for tumor model P388 Leukemia (intraperitoneal) in CD2F1 (CDF1) mice
Conditions: endpoint: median survival time, higher = longer survival
Procedure, shortened: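 Mice carrying the transplanted tumor received test compound or vehicle. Survival was recorded in each group, and the value is the treated-group measurement divided by that of the vehicle-treated control group.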

[1] = dose: 50.0 mg/kg/injection, schedule: Q01DX009 (ip), vehicle: Klucel (hydroxypropylcellulose) (HPC)
[2] = dose: 100.0 mg/kg/injection, schedule: Q01DX009 (ip), vehicle: Klucel (hydroxypropylcellulose) (HPC)
[3] = dose: 50.0 mg/kg/injection, schedule: Q01DX005 (ip), vehicle: saline with Tween-80
[4] = dose: 100.0 mg/kg/injection, schedule: Q01DX005 (ip), vehicle: saline with Tween-80
[5] = dose: 200.0 mg/kg/injection, schedule: Q01DX005 (ip), vehicle: saline with Tween-80
[6] = dose: 200.0 mg/kg/injection, schedule: Q01DX009 (ip), vehicle: Klucel (hydroxypropylcellulose) (HPC)

Measured: T/C

COc1cc(O)c2c(c1)C(=O)c1cc3c(c(O)c1C2=O)C(O)C(OC)C(C)(O)C3=O (stereo not drawn)
inactive: dose: 6.25 mg/kg/injection, schedule: Q01DX009 (ip), vehicle: Klucel (hydroxypropylcellulose) (HPC) 95 % of control | dose: 12.5 mg/kg/injection, schedule: Q01DX009 (ip), vehicle: Klucel (hydroxypropylcellulose) (HPC) 105 % of control | dose: 25.0 mg/kg/injection, schedule: Q01DX009 (ip), vehicle: Klucel (hydroxypropylcellulose) (HPC) 98 % of control | [1] 94 % of control | [2] 95 % of control

O=[N+]([O-])c1cc2no[n+]([O-])c2cc1N1CCCCC1
inactive: dose: 3.75 mg/kg/injection, schedule: Q01DX009 (ip), vehicle: saline 97 % of control | dose: 3.75 mg/kg/injection, schedule: Q01DX009 (ip), vehicle: suspension in saline 94 % of control | dose: 7.5 mg/kg/injection, schedule: Q01DX009 (ip), vehicle: saline 114 % of control | dose: 7.5 mg/kg/injection, schedule: Q01DX009 (ip), vehicle: suspension in saline 103 % of control | dose: 15.0 mg/kg/injection, schedule: Q01DX009 (ip), vehicle: saline 101 % of control | dose: 15.0 mg/kg/injection, schedule: Q01DX009 (ip), vehicle: suspension in saline 103 % of control | dose: 30.0 mg/kg/injection, schedule: Q01DX009 (ip), vehicle: saline 108 % of control | dose: 30.0 mg/kg/injection, schedule: Q01DX009 (ip), vehicle: suspension in saline 122 % of control

CC(=O)Oc1c2ccccc2cc2ccccc12
inactive: [3] 112 % of control | [4] 96 % of control | [5] 89 % of control

CCCCCCCCCCCCOc1ccccc1C(=O)O
inactive: dose: 6.25 mg/kg/injection, schedule: Q04DX003 (ip), vehicle: saline sonified 100 % of control | dose: 12.5 mg/kg/injection, schedule: Q04DX003 (ip), vehicle: saline sonified 100 % of control | dose: 25.0 mg/kg/injection, schedule: Q04DX003 (ip), vehicle: saline sonified 100 % of control

O=C1NC2CCC1CC2
inactive: dose: 50.0 mg/kg/injection, schedule: Q01DX005 (ip), vehicle: suspension in saline 101 % of control | dose: 100.0 mg/kg/injection, schedule: Q01DX005 (ip), vehicle: suspension in saline 97 % of control | dose: 200.0 mg/kg/injection, schedule: Q01DX005 (ip), vehicle: suspension in saline 102 % of control

c1ccc(-c2n[se]c(-c3ccccc3)n2)cc1
inactive: dose: 12.5 mg/kg/injection, schedule: Q04DX002 (ip), vehicle: saline with Tween-80 102 % of control | dose: 25.0 mg/kg/injection, schedule: Q04DX002 (ip), vehicle: saline with Tween-80 95 % of control | dose: 50.0 mg/kg/injection, schedule: Q04DX002 (ip), vehicle: saline with Tween-80 93 % of control

Cc1ccc(-n2c(N)cc(=O)[nH]c2=S)nc1
inactive: dose: 56.25 mg/kg/injection, schedule: Q01DX001 (ip), vehicle: saline with Tween-80 104 % of control | dose: 112.5 mg/kg/injection, schedule: Q01DX001 (ip), vehicle: saline with Tween-80 100 % of control | dose: 225.0 mg/kg/injection, schedule: Q01DX001 (ip), vehicle: saline with Tween-80 90 % of control

CC(C)=CCC(OC(=O)CC(C)C)C1=CC(=O)c2c(O)ccc(O)c2C1=O (stereo not drawn)
inactive: dose: 6.25 mg/kg/injection, schedule: Q01DX005 (ip), vehicle: saline with Tween-80 94 % of control | dose: 12.5 mg/kg/injection, schedule: Q01DX005 (ip), vehicle: saline with Tween-80 103 % of control | dose: 25.0 mg/kg/injection, schedule: Q01DX005 (ip), vehicle: saline with Tween-80 99 % of control

c1ccc(C2=C(c3ccccc3)C3SC4CCCC3C4(N3CCOCC3)S2)cc1 (stereo not drawn)
inactive: dose: 100.0 mg/kg/injection, schedule: Q01DX001 (ip), vehicle: Klucel (hydroxypropylcellulose) (HPC) 95 % of control | dose: 200.0 mg/kg/injection, schedule: Q01DX001 (ip), vehicle: Klucel (hydroxypropylcellulose) (HPC) 99 % of control | dose: 400.0 mg/kg/injection, schedule: Q01DX001 (ip), vehicle: Klucel (hydroxypropylcellulose) (HPC) 93 % of control

CCCC(=O)NC
inactive: dose: 25.0 mg/kg/injection, schedule: Q01DX005 (ip), vehicle: saline 102 % of control | dose: 50.0 mg/kg/injection, schedule: Q01DX005 (ip), vehicle: saline 99 % of control | dose: 100.0 mg/kg/injection, schedule: Q01DX005 (ip), vehicle: saline 110 % of control | dose: 200.0 mg/kg/injection, schedule: Q01DX005 (ip), vehicle: saline 104 % of control | dose: 400.0 mg/kg/injection, schedule: Q01DX005 (ip), vehicle: saline 99 % of control

Cc1cc(C)c(O)c(CS(=O)(=O)Cc2cc(C)cc(C)c2O)c1
inactive: dose: 100.0 mg/kg/injection, schedule: Q04DX002 (ip), vehicle: saline 101 % of control | dose: 200.0 mg/kg/injection, schedule: Q04DX002 (ip), vehicle: saline 97 % of control | dose: 400.0 mg/kg/injection, schedule: Q04DX002 (ip), vehicle: saline 91 % of control

CCOC(=O)ON(C)C(=O)OCC
inactive: [3] 102 % of control | [4] 102 % of control | [5] 107 % of control | dose: 400.0 mg/kg/injection, schedule: Q01DX005 (ip), vehicle: saline with Tween-80 102 % of control

CC1CCC(C)(C(O)c2ccc(C(O)C3(C)CCC(C)C3(C)C)cc2)C1(C)C (stereo not drawn)
inactive: dose: 50.0 mg/kg/injection, schedule: Q01DX009 (ip), vehicle: saline 86 % of control | dose: 50.0 mg/kg/injection, schedule: Q01DX009 (ip), vehicle: suspension in saline 92 % of control | dose: 100.0 mg/kg/injection, schedule: Q01DX009 (ip), vehicle: suspension in saline 91 % of control | dose: 200.0 mg/kg/injection, schedule: Q01DX009 (ip), vehicle: saline 89 % of control

O=C(O)c1ccccc1Cc1cccc2ccccc12
inactive: dose: 100.0 mg/kg/injection, schedule: Q04DX002 (ip), vehicle: Klucel (hydroxypropylcellulose) (HPC) 91 % of control | dose: 200.0 mg/kg/injection, schedule: Q04DX002 (ip), vehicle: Klucel (hydroxypropylcellulose) (HPC) 96 % of control | dose: 400.0 mg/kg/injection, schedule: Q04DX002 (ip), vehicle: Klucel (hydroxypropylcellulose) (HPC) 99 % of control

CC(C)CCc1cc(O)c(CCC(C)C)cc1O
inactive: dose: 6.25 mg/kg/injection, schedule: Q01DX009 (ip), vehicle: saline with Tween-80 88 % of control | dose: 25.0 mg/kg/injection, schedule: Q01DX009 (ip), vehicle: saline with Tween-80 109 % of control | dose: 50.0 mg/kg/injection, schedule: Q01DX009 (ip), vehicle: saline with Tween-80 108 % of control | dose: 100.0 mg/kg/injection, schedule: Q01DX009 (ip), vehicle: saline with Tween-80 114 % of control

COc1ccc(CCN2C(=O)C(=O)N(c3ccc(C)cc3)C2=O)cc1OC
inactive: [1] 96 % of control | [2] 97 % of control | [6] 104 % of control

Cc1ccccc1C(=Nc1ccccc1)Oc1ccccc1[N+](=O)[O-]
inactive: dose: 100.0 mg/kg/injection, schedule: Q04DX003 (ip), vehicle: saline 100 % of control | dose: 200.0 mg/kg/injection, schedule: Q04DX003 (ip), vehicle: saline 100 % of control | dose: 400.0 mg/kg/injection, schedule: Q04DX003 (ip), vehicle: saline 100 % of control

CCn1c(=O)c(C(C)=O)cc2c(=O)c3c(ccc4ccccc43)oc21
inactive: [3] 104 % of control | [4] 93 % of control | [5] 91 % of control

O=C(NCc1ccco1)Nc1ccccc1[N+](=O)[O-]
inactive: dose: 50.0 mg/kg/injection, schedule: Q01DX005 (ip), vehicle: Klucel (hydroxypropylcellulose) (HPC) 96 % of control | dose: 100.0 mg/kg/injection, schedule: Q01DX005 (ip), vehicle: Klucel (hydroxypropylcellulose) (HPC) 95 % of control | dose: 200.0 mg/kg/injection, schedule: Q01DX005 (ip), vehicle: Klucel (hydroxypropylcellulose) (HPC) 95 % of control

O=S(=O)(c1ccc(NC(=S)NC23CC4CC(CC(C4)C2)C3)cc1)N1CCCCC1
inactive: [1] 88 % of control | [2] 93 % of control | [6] 94 % of control

CCCCOC(=O)NCNC(=O)OCCCC
inactive: [1] 99 % of control | [2] 100 % of control | [6] 94 % of control

CCc1ccc(N=Cc2ccc(OC(=O)c3ccc(OC)cc3)c(OC)c2)cc1
inactive: dose: 60.0 mg/kg/injection, schedule: Q01DX005 (ip), vehicle: saline with Tween-80 96 % of control | dose: 120.0 mg/kg/injection, schedule: Q01DX005 (ip), vehicle: saline with Tween-80 94 % of control | dose: 240.0 mg/kg/injection, schedule: Q01DX005 (ip), vehicle: saline with Tween-80 92 % of control
